What was measured:
Experiment in all cases: scanMAX kinase assay panel
Assay type in all cases: binding
Conditions in all cases: read-out: control percentage (% control)
CIT = target: T1, CIT (Homo sapiens, UniProt O14578)
T1 construct: purchased DiscoverX (scanMAX panel, contract assay)
Description: (§1) The activities of the compounds according to the present invention to more diverse enzymes were evaluated. Specifically, it was decided that the enzyme selectivity of Example 74 selected from the compounds of Examples 1 to 129 was measured at the request of DiscoverX, and the experiment was conducted using a scanMAX™ kinase assay panel. At this time, as a drug to treat the enzyme, a solution prepared by dissolving in DMSO at a concentration of 1 μM was used, and the control percentage (% control) was determined by the method of Equation 1 below, and the results were shown in Table 2 below.
(§2) In Equation above, the positive control and negative control mean compounds showing control percentages of 0% and 100% as DMSO, respectively.

JNK1 = target: T2, JNK1 (Homo sapiens, UniProt P45983)
T2 construct: purchased DiscoverX scanMAX kinase assay panel
Description: as §1, §2

[1] = target: T3, TYK2(JH2domain-pseudokinase) (Homo sapiens, UniProt P29597)
T3 construct: TYK2(JH2domain-pseudokinase); purchased DiscoverX
Description: as §1, §2

KIT(L576P) = target: T4, KIT(L576P) (Homo sapiens, UniProt P10721, L576P)
T4 construct: purchased DiscoverX scanMAX kinase assay panel
Description: as §1, §2

TRKB = target: T5, TRKB (Homo sapiens, UniProt Q16620)
T5 construct: purchased DiscoverX
Description: as §1, §2

DYRK1B = target: T6, DYRK1B (Homo sapiens, UniProt Q9Y463)
T6 construct: purchased DiscoverX scanMAX kinase assay panel
Description: as §1, §2

EPHB4 = target: T7, EPHB4 (Homo sapiens, UniProt P54760)
T7 construct: purchased DiscoverX scanMAX kinase assay panel
Description: as §1, §2

EGFR(T790M) = target: T8, EGFR(T790M) (Homo sapiens, UniProt P00533, T790M)
T8 construct: purchased DiscoverX scanMAX kinase assay panel
T8 sequence (P00533 25-1210 T790M): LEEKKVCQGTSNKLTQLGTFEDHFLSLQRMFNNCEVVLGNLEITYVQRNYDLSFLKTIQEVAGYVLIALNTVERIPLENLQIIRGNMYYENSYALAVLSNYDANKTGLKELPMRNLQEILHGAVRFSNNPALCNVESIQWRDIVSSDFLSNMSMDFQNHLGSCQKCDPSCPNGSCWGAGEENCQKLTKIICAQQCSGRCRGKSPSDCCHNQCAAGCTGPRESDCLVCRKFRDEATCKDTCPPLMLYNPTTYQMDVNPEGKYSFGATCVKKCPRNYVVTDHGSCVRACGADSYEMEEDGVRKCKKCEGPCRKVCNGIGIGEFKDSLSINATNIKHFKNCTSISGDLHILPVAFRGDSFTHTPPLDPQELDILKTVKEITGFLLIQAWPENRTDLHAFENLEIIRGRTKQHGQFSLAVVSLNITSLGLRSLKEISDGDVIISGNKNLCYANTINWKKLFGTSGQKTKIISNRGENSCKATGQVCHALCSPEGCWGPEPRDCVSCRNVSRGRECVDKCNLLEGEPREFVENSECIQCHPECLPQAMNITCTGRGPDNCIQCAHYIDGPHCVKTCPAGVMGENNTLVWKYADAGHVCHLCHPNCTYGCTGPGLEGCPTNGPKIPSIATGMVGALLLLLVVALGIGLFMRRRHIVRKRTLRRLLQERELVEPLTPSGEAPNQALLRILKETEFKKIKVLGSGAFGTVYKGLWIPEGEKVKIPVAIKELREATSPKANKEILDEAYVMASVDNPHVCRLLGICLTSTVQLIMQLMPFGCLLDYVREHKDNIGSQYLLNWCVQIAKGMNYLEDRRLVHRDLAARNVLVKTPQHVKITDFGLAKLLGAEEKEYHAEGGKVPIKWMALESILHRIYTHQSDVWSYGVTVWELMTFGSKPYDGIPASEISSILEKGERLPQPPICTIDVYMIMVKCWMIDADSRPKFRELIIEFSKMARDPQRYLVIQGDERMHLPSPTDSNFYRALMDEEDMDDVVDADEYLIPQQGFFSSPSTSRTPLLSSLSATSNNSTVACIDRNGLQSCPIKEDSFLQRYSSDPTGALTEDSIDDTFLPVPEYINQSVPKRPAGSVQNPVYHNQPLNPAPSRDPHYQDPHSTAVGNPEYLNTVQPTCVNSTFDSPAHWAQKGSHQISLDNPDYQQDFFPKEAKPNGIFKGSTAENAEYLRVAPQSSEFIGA
Description: as §1, §2

MET(Y1235D) = target: T9, MET(Y1235D) (Homo sapiens, UniProt P08581, Y1235D)
T9 construct: purchased DiscoverX scanMAX kinase assay panel
Description: as §1, §2

MST3 = target: T10, MST3 (Homo sapiens, UniProt Q9Y6E0)
T10 construct: purchased DiscoverX scanMAX kinase assay panel
Description: as §1, §2

JNK3 = target: T11, JNK3 (Homo sapiens, UniProt P53779)
T11 construct: purchased DiscoverX scanMAX kinase assay panel
Description: as §1, §2

EGFR = target: T12, EGFR (Homo sapiens, UniProt P00533)
T12 construct: purchased DiscoverX scanMAX kinase assay panel
Description: as §1, §2

TAK1 = target: T13, TAK1 (Homo sapiens, UniProt O43318)
T13 construct: purchased DiscoverX
Description: as §1, §2

BLK = target: T14, BLK (Homo sapiens, UniProt P51451)
T14 construct: purchased DiscoverX (scanMAX panel, contract assay)
T14 sequence (P51451 whole entry): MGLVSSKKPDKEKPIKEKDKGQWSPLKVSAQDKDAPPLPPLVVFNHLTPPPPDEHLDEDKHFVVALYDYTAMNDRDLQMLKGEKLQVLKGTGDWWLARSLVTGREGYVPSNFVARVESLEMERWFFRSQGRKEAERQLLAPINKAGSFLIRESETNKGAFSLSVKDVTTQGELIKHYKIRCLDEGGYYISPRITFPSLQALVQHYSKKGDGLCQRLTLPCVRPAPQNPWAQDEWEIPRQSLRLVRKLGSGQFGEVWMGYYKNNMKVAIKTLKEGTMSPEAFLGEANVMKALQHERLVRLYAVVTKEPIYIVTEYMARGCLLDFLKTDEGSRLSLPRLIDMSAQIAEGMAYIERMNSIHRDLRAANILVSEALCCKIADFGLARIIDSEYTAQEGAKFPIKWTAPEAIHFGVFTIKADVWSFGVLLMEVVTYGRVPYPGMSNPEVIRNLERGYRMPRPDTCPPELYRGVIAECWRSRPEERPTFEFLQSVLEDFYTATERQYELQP
Description: as §1, §2

ULK1 = target: T15, ULK1 (Homo sapiens, UniProt O75385)
T15 construct: purchased DiscoverX
Description: as §1, §2

MAP4K4 = target: T16, MAP4K4 (Homo sapiens, UniProt O95819)
T16 construct: purchased DiscoverX scanMAX kinase assay panel
Description: as §1, §2

FLT3(D835Y) = target: T17, FLT3(D835Y) (Homo sapiens, UniProt P36888, D835Y)
T17 construct: purchased DiscoverX scanMAX kinase assay panel
Description: as §1, §2

PIP5K2C = target: T18, PIP5K2C (Homo sapiens, UniProt Q8TBX8)
T18 construct: purchased DiscoverX scanMAX kinase assay panel
T18 sequence (Q8TBX8 whole entry): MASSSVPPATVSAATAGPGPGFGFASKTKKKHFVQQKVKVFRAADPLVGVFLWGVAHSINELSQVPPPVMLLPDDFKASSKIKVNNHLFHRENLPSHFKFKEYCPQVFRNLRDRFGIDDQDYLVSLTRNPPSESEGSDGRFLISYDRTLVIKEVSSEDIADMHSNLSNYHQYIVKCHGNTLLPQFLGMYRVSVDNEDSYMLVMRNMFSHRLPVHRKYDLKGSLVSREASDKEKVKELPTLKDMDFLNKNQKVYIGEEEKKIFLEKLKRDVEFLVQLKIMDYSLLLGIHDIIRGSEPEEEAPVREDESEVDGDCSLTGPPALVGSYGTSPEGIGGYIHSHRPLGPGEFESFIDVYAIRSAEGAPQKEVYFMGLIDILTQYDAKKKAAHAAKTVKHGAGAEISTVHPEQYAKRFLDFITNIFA
Description: as §1, §2

PIP5K1A = target: T19, PIP5K1A (Homo sapiens, UniProt Q99755)
T19 construct: purchased DiscoverX scanMAX kinase assay panel
Description: as §1, §2

PIP5K2B = target: T20, PIP5K2B (Homo sapiens, UniProt P78356)
T20 construct: purchased DiscoverX scanMAX kinase assay panel
Description: as §1, §2

[2] = target: T21, JAK2(JH1domain-catalytic) (Homo sapiens, UniProt O60674)
T21 construct: JAK2(JH1 domain-catalytic); purchased DiscoverX scanMAX kinase assay panel
Description: as §1, §2

MET(M1250T) = target: T22, MET(M1250T) (Homo sapiens, UniProt P08581, M1250T)
T22 construct: purchased DiscoverX scanMAX kinase assay panel
Description: as §1, §2

ARK5 = target: T23, ARK5 (Homo sapiens, UniProt O60285)
T23 construct: purchased DiscoverX (scanMAX panel, contract assay)
Description: as §1, §2

JNK2 = target: T24, JNK2 (Homo sapiens, UniProt P45984)
T24 construct: purchased DiscoverX scanMAX kinase assay panel
Description: as §1, §2

RIOK3 = target: T25, RIOK3 (Homo sapiens, UniProt O14730)
T25 construct: purchased DiscoverX scanMAX kinase assay panel
Description: as §1, §2

TRKA = target: T26, TRKA (Homo sapiens, UniProt P04629)
T26 construct: purchased DiscoverX
Description: as §1, §2

DMPK = target: T27, DMPK (Homo sapiens, UniProt Q09013)
T27 construct: purchased DiscoverX scanMAX kinase assay panel
T27 sequence (Q09013 whole entry): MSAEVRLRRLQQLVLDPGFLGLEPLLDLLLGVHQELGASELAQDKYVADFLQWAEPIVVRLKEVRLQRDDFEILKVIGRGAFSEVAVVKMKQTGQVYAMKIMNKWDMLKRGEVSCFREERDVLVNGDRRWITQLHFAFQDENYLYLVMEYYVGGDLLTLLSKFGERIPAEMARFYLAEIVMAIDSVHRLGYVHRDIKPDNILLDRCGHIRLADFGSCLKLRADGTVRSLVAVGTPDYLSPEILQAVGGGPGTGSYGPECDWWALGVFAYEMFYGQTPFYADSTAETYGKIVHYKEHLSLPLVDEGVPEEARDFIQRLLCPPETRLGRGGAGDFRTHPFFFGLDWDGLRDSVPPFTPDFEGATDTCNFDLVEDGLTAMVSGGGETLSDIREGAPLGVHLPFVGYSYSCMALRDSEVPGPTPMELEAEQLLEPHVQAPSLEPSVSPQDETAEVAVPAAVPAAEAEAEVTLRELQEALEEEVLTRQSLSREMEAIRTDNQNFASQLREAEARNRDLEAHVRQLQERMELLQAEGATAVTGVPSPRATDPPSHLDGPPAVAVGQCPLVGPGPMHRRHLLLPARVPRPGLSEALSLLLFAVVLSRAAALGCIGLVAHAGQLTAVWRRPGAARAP
Description: as §1, §2

LCK = target: T28, LCK (Homo sapiens, UniProt P06239)
T28 construct: purchased DiscoverX scanMAX kinase assay panel
T28 sequence (P06239 whole entry): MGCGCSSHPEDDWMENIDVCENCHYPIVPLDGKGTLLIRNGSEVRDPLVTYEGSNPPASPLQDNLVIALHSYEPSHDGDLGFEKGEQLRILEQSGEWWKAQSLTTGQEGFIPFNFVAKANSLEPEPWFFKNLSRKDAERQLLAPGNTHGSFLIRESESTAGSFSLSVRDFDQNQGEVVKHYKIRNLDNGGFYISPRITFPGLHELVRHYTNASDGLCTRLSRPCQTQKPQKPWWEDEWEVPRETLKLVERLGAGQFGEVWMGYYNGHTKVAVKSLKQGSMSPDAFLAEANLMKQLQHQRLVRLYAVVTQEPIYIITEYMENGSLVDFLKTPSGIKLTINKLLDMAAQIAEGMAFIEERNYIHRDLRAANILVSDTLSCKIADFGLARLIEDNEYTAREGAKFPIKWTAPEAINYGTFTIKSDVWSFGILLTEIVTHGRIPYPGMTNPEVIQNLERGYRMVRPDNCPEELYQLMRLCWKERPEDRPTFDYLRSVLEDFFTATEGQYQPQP
Description: as §1, §2

FLT3(D835H) = target: T29, FLT3(D835H) (Homo sapiens, UniProt P36888, D835H)
T29 construct: purchased DiscoverX scanMAX kinase assay panel
Description: as §1, §2

MERTK = target: T30, MERTK (Homo sapiens, UniProt Q12866)
T30 construct: purchased DiscoverX scanMAX kinase assay panel
Description: as §1, §2

ULK2 = target: T31, ULK2 (Homo sapiens, UniProt Q8IYT8)
T31 construct: purchased DiscoverX
Description: as §1, §2

TRKC = target: T32, TRKC (Homo sapiens, UniProt Q16288)
T32 construct: purchased DiscoverX
T32 sequence (Q16288 32-839): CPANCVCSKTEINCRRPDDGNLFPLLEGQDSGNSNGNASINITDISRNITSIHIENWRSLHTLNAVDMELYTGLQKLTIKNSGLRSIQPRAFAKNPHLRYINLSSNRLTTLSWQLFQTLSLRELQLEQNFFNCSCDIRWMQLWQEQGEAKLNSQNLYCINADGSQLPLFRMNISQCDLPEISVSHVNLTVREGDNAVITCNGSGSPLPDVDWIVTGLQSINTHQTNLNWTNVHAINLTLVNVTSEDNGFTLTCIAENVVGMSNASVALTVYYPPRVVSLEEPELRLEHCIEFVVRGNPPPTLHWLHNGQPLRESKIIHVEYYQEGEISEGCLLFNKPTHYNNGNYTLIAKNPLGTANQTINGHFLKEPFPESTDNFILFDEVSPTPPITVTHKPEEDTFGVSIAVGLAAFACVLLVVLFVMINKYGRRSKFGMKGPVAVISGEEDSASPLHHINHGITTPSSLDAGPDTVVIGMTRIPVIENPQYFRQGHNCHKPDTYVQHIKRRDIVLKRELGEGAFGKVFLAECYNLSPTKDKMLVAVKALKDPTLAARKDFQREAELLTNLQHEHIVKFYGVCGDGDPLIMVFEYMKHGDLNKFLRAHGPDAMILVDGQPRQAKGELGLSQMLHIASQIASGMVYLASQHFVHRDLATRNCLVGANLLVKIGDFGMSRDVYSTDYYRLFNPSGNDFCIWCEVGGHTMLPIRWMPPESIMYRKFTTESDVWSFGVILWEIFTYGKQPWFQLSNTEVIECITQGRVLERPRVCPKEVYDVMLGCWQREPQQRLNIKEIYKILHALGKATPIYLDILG
Description: as §1, §2

SYK = target: T33, SYK (Homo sapiens, UniProt P43405)
T33 construct: purchased DiscoverX
Description: as §1, §2

SNARK = target: T34, SNARK (Homo sapiens, UniProt Q9H093)
T34 construct: purchased DiscoverX
Description: as §1, §2

TAOK3 = target: T35, TAOK3 (Homo sapiens, UniProt Q9H2K8)
T35 construct: purchased DiscoverX
T35 sequence (Q9H2K8 whole entry): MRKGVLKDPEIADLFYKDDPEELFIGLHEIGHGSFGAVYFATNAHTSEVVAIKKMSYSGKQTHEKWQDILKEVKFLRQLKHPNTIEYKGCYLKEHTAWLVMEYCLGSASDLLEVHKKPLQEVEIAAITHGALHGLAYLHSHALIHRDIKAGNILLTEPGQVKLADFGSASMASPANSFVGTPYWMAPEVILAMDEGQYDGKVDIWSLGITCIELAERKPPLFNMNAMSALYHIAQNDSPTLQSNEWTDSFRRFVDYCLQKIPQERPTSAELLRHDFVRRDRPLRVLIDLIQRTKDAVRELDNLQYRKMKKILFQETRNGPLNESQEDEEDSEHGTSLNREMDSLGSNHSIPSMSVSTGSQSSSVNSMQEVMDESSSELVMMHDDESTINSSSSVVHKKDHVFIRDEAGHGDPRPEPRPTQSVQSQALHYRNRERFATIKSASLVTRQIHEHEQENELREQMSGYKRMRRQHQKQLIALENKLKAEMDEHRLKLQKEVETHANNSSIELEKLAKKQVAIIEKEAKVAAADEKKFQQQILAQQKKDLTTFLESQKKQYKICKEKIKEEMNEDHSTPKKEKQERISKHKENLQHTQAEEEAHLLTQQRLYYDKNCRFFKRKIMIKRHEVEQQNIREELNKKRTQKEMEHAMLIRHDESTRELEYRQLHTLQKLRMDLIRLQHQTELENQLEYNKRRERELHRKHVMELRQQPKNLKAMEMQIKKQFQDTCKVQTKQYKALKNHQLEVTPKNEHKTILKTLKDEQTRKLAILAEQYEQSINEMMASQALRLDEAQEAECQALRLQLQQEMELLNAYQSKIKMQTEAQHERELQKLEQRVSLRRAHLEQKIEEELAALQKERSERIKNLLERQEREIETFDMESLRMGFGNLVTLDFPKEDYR
Description: as §1, §2

## CN1CCN(c2ccc(Nc3nc(N4OCC[C@H]4c4ccccc4)c4cc[nH]c4n3)cc2)CC1 [Example 74, (S)-N-(4-(4-methylpiperazin-1-yl)phenyl)-4-(3-phenylisoxazolidin-2-yl)-7H-pyrrolo[2,3-d]pyrimidin-2-amine]
CIT
  remaining binding at 1 µM: 0.3%
JNK1
  remaining binding at 1 µM: 2.7%
[1]
  remaining binding at 1 µM: 2.6%
KIT(L576P)
  remaining binding at 1 µM: 31%
TRKB
  remaining binding at 1 µM: 8.3%
DYRK1B
  remaining binding at 1 µM: 11%
EPHB4
  remaining binding at 1 µM: 31%
EGFR(T790M)
  remaining binding at 1 µM: 3.7%
MET(Y1235D)
  remaining binding at 1 µM: 7%
MST3
  remaining binding at 1 µM: 32%
JNK3
  remaining binding at 1 µM: 4.5%
EGFR
  remaining binding at 1 µM: 28%
TAK1
  remaining binding at 1 µM: 16%
BLK
  remaining binding at 1 µM: 19%
ULK1
  remaining binding at 1 µM: 8.1%
MAP4K4
  remaining binding at 1 µM: 30%
FLT3(D835Y)
  remaining binding at 1 µM: 0.15%
PIP5K2C
  remaining binding at 1 µM: 26%
PIP5K1A
  remaining binding at 1 µM: 1.2%
PIP5K2B
  remaining binding at 1 µM: 18%
[2]
  remaining binding at 1 µM: 0%
MET(M1250T)
  remaining binding at 1 µM: 11%
ARK5
  remaining binding at 1 µM: 8.9%
JNK2
  remaining binding at 1 µM: 29%
RIOK3
  remaining binding at 1 µM: 3.6%
TRKA
  remaining binding at 1 µM: 1.1%
DMPK
  remaining binding at 1 µM: 0.65%
LCK
  remaining binding at 1 µM: 12%
FLT3(D835H)
  remaining binding at 1 µM: 21%
MERTK
  remaining binding at 1 µM: 29%
ULK2
  remaining binding at 1 µM: 2.5%
TRKC
  remaining binding at 1 µM: 21%
SYK
  remaining binding at 1 µM: 32%
SNARK
  remaining binding at 1 µM: 3.7%
TAOK3
  remaining binding at 1 µM: 22%

Reference: US20220242870A1, “HETEROCYCLE-FUSED PYRIMIDINE DERIVATIVE AND USE THEREOF” (VORONOI Inc., priority 2019, published 2022)
